Results from patent US10829796B2, “Bacteria identification and antimicrobial susceptibility test” (priority 2015, dated 2020).

Legend:
Type in all cases: cell-based
[1] = system: Staphylococcus aureus; experiment: Antibiotic susceptibility testing (colour of media), spiked milk; details: for Colour of media: bacteria sample 5c; for Colour of media in each well: T~16 h, 37° C., plate configuration #3
Procedure: (§1) Tables 36 to 38 which follow show further examples of antibiotic susceptibility testing performed in accordance with the present invention. Table 36, antibiotic susceptibility testing of Staphylococcus aureus in Mueller Hinton and Tryptic Soy Broth at pre-incubation and at between 15-24 h. Tables 37 and 38, antimicrobial susceptibility testing of Streptococcus uberis and E. coli with the addition of gram negative specific antibiotic aztreonam. Tables 38 to 49 show further examples of antibiotic susceptibility testing and the outcomes are aligned with the described inventions.

[2] = system: Streptococcus uberis; experiment: as above; details: T~16 h, 37° C., bacteria samples 6d, plate configuration #3
Procedure: as §1

[3] = system: Escherichia coli; experiment: as above; details: 37° C., plate configuration #3
Procedure: as §1

[4] = system: bacteria samples 4c, 4e, 5c, 5e, 6d; experiment: Antibiotic susceptibility testing (colour of media), plate configuration #3, reference colours at 0 hours for bacteria samples 4c, 4e, 5c, 5e, 6d; details: T~0 h
[5] = Benzyl Penicillin or Cloxacillin 1 μg/ml
[6] = Benzyl Penicillin or Cloxacillin 10 μg/ml
[7] = Benzyl Penicillin or Cloxacillin 100 μg/ml
[8] = Benzyl Penicillin or Cloxacillin 1,000 μg/ml
[9] = Benzyl Penicillin or Cloxacillin 10,000 μg/ml

For `CC1(C)S[C@@H]2[C@H](NC(=O)Cc3ccccc3)C(=O)N2[C@H]1C(=O)O` [benzyl penicillin], the Colour of media ([1]; T = 0 hours (pre incubation), drug 0.01 μg/ml, Mueller Hinton (70 ul composition 26)) was “red”, the Colour of media ([1]; T = 0 hours (pre incubation), drug 0.01 μg/ml, Tryptic Soy (70 ul composition 2c)) was “red” and the Colour of media ([1]; T = 0 hours (pre incubation), drug 0.01 μg/ml, Tryptic Soy, wells H (20 ul composition 2c)) was “red”. For the same compound, the Colour of media ([1]; T = 0 hours (pre incubation), drug 0.05 μg/ml, Mueller Hinton (70 ul composition 26)) was “red”, the Colour of media ([1]; T = 0 hours (pre incubation), drug 0.05 μg/ml, Tryptic Soy (70 ul composition 2c)) was “red” and the Colour of media ([1]; T = 0 hours (pre incubation), drug 0.05 μg/ml, Tryptic Soy, wells H (20 ul composition 2c)) was “red”. For the same compound, the Colour of media ([1]; T = 0 hours (pre incubation), drug 0.1 μg/ml, Mueller Hinton (70 ul composition 26)) was “red”, the Colour of media ([1]; T = 0 hours (pre incubation), drug 0.1 μg/ml, Tryptic Soy (70 ul composition 2c)) was “red” and the Colour of media ([1]; T = 0 hours (pre incubation), drug 0.1 μg/ml, Tryptic Soy, wells H (20 ul composition 2c)) was “red”. For the same compound, the Colour of media ([1]; T = 0 hours (pre incubation), drug 0.5 μg/ml, Mueller Hinton (70 ul composition 26)) was “red”, the Colour of media ([1]; T = 0 hours (pre incubation), drug 0.5 μg/ml, Tryptic Soy (70 ul composition 2c)) was “red” and the Colour of media ([1]; T = 0 hours (pre incubation), drug 0.5 μg/ml, Tryptic Soy, wells H (20 ul composition 2c)) was “red”. For the same compound, the Colour of media ([1]; T = 0 hours (pre incubation), drug 1 μg/ml, Mueller Hinton (70 ul composition 26)) was “red”, the Colour of media ([1]; T = 0 hours (pre incubation), drug 1 μg/ml, Tryptic Soy (70 ul composition 2c)) was “red” and the Colour of media ([1]; T = 0 hours (pre incubation), drug 1 μg/ml, Tryptic Soy, wells H (20 ul composition 2c)) was “red”. The Colour of media ([1]; T = 0 hours (pre incubation), drug 5 μg/ml, Mueller Hinton (70 ul composition 26)) was “red”, the Colour of media ([1]; T = 0 hours (pre incubation), drug 5 μg/ml, Tryptic Soy (70 ul composition 2c)) was “red” and the Colour of media ([1]; T = 0 hours (pre incubation), drug 5 μg/ml, Tryptic Soy, wells H (20 ul composition 2c)) was “red”. The Colour of media ([1]; T = 0 hours (pre incubation), drug 10 μg/ml, Mueller Hinton (70 ul composition 26)) was “red”, the Colour of media ([1]; T = 0 hours (pre incubation), drug 10 μg/ml, Tryptic Soy (70 ul composition 2c)) was “red” and the Colour of media ([1]; T = 0 hours (pre incubation), drug 10 μg/ml, Tryptic Soy, wells H (20 ul composition 2c)) was “red”. For the same compound, the Colour of media ([1]; T = 0 hours (pre incubation), drug 50 μg/ml, Mueller Hinton (70 ul composition 26)) was “red”, the Colour of media ([1]; T = 0 hours (pre incubation), drug 50 μg/ml, Tryptic Soy (70 ul composition 2c)) was “red” and the Colour of media ([1]; T = 0 hours (pre incubation), drug 50 μg/ml, Tryptic Soy, wells H (20 ul composition 2c)) was “red”. For the same compound, the Colour of media ([1]; T = 0 hours (pre incubation), drug 100 μg/ml, Mueller Hinton (70 ul composition 26)) was “red”, the Colour of media ([1]; T = 0 hours (pre incubation), drug 100 μg/ml, Tryptic Soy (70 ul composition 2c)) was “red” and the Colour of media ([1]; T = 0 hours (pre incubation), drug 100 μg/ml, Tryptic Soy, wells H (20 ul composition 2c)) was “red”. For the same compound, the Colour of media ([1]; T = 0 hours (pre incubation), drug 500 μg/ml, Mueller Hinton (70 ul composition 26)) was “red”, the Colour of media ([1]; T = 0 hours (pre incubation), drug 500 μg/ml, Tryptic Soy (70 ul composition 2c)) was “red” and the Colour of media ([1]; T = 0 hours (pre incubation), drug 500 μg/ml, Tryptic Soy, wells H (20 ul composition 2c)) was “red”. The Colour of media ([1]; T = 15-24 h at 35° C., drug 0.01 μg/ml, Mueller Hinton (70 ul composition 26)) was “red”, the Colour of media ([1]; T = 15-24 h at 35° C., drug 0.01 μg/ml, Tryptic Soy (70 ul composition 2c)) was “yellow” and the Colour of media ([1]; T = 15-24 h at 35° C., drug 0.01 μg/ml, Tryptic Soy, wells H (20 ul composition 2c)) was “red”. For the same compound, the Colour of media ([1]; T = 15-24 h at 35° C., drug 0.05 μg/ml, Mueller Hinton (70 ul composition 26)) was “red”, the Colour of media ([1]; T = 15-24 h at 35° C., drug 0.05 μg/ml, Tryptic Soy (70 ul composition 2c)) was “red” and the Colour of media ([1]; T = 15-24 h at 35° C., drug 0.05 μg/ml, Tryptic Soy, wells H (20 ul composition 2c)) was “red”. For the same compound, the Colour of media ([1]; T = 15-24 h at 35° C., drug 0.1 μg/ml, Mueller Hinton (70 ul composition 26)) was “red”, the Colour of media ([1]; T = 15-24 h at 35° C., drug 0.1 μg/ml, Tryptic Soy (70 ul composition 2c)) was “red” and the Colour of media ([1]; T = 15-24 h at 35° C., drug 0.1 μg/ml, Tryptic Soy, wells H (20 ul composition 2c)) was “red”. For the same compound, the Colour of media ([1]; T = 15-24 h at 35° C., drug 0.5 μg/ml, Mueller Hinton (70 ul composition 26)) was “red”, the Colour of media ([1]; T = 15-24 h at 35° C., drug 0.5 μg/ml, Tryptic Soy (70 ul composition 2c)) was “red” and the Colour of media ([1]; T = 15-24 h at 35° C., drug 0.5 μg/ml, Tryptic Soy, wells H (20 ul composition 2c)) was “red”. For the same compound, the Colour of media ([1]; T = 15-24 h at 35° C., drug 1 μg/ml, Mueller Hinton (70 ul composition 26)) was “red”, the Colour of media ([1]; T = 15-24 h at 35° C., drug 1 μg/ml, Tryptic Soy (70 ul composition 2c)) was “red” and the Colour of media ([1]; T = 15-24 h at 35° C., drug 1 μg/ml, Tryptic Soy, wells H (20 ul composition 2c)) was “red”. The Colour of media ([1]; T = 15-24 h at 35° C., drug 5 μg/ml, Mueller Hinton (70 ul composition 26)) was “red”, the Colour of media ([1]; T = 15-24 h at 35° C., drug 5 μg/ml, Tryptic Soy (70 ul composition 2c)) was “red” and the Colour of media ([1]; T = 15-24 h at 35° C., drug 5 μg/ml, Tryptic Soy, wells H (20 ul composition 2c)) was “red”. For the same compound, the Colour of media ([1]; T = 15-24 h at 35° C., drug 10 μg/ml, Mueller Hinton (70 ul composition 26)) was “red”, the Colour of media ([1]; T = 15-24 h at 35° C., drug 10 μg/ml, Tryptic Soy (70 ul composition 2c)) was “red” and the Colour of media ([1]; T = 15-24 h at 35° C., drug 10 μg/ml, Tryptic Soy, wells H (20 ul composition 2c)) was “red”. For the same compound, the Colour of media ([1]; T = 15-24 h at 35° C., drug 50 μg/ml, Mueller Hinton (70 ul composition 26)) was “red”, the Colour of media ([1]; T = 15-24 h at 35° C., drug 50 μg/ml, Tryptic Soy (70 ul composition 2c)) was “red” and the Colour of media ([1]; T = 15-24 h at 35° C., drug 50 μg/ml, Tryptic Soy, wells H (20 ul composition 2c)) was “red”. The Colour of media ([1]; T = 15-24 h at 35° C., drug 100 μg/ml, Mueller Hinton (70 ul composition 26)) was “red”, the Colour of media ([1]; T = 15-24 h at 35° C., drug 100 μg/ml, Tryptic Soy (70 ul composition 2c)) was “red” and the Colour of media ([1]; T = 15-24 h at 35° C., drug 100 μg/ml, Tryptic Soy, wells H (20 ul composition 2c)) was “red”. For the same compound, the Colour of media ([1]; T = 15-24 h at 35° C., drug 500 μg/ml, Mueller Hinton (70 ul composition 26)) was “red”, the Colour of media ([1]; T = 15-24 h at 35° C., drug 500 μg/ml, Tryptic Soy (70 ul composition 2c)) was “red” and the Colour of media ([1]; T = 15-24 h at 35° C., drug 500 μg/ml, Tryptic Soy, wells H (20 ul composition 2c)) was “red”. The “Colour of media in each well” value ([1]; bacteria samples 5c, Benzyl Penicillin or Cloxacillin 1 μg/ml) was “red”, the “Colour of media in each well” value ([1]; bacteria samples 5c, Benzyl Penicillin or Cloxacillin 10 μg/ml) was “red” and the “Colour of media in each well” value ([1]; bacteria samples 5c, Benzyl Penicillin or Cloxacillin 100 μg/ml) was “red”. For the same compound, the “Colour of media in each well” value ([1]; bacteria samples 5c, Benzyl Penicillin or Cloxacillin 1,000 μg/ml) was “red”, the “Colour of media in each well” value ([1]; bacteria samples 5c, Benzyl Penicillin or Cloxacillin 10,000 μg/ml) was “red” and the “Colour of media in each well” value ([1]; bacteria samples 5e, Benzyl Penicillin or Cloxacillin 1 μg/ml) was “red”. The “Colour of media in each well” value ([1]; bacteria samples 5e, Benzyl Penicillin or Cloxacillin 10 μg/ml) was “red”, the “Colour of media in each well” value ([1]; bacteria samples 5e, Benzyl Penicillin or Cloxacillin 100 μg/ml) was “red” and the “Colour of media in each well” value ([1]; bacteria samples 5e, Benzyl Penicillin or Cloxacillin 1,000 μg/ml) was “red”. For the same compound, the “Colour of media in each well” value ([1]; bacteria samples 5e, Benzyl Penicillin or Cloxacillin 10,000 μg/ml) was “red”, the “Colour of media in each well” value [2, 5] was “red” and the “Colour of media in each well” value [2, 6] was “red”. The “Colour of media in each well” value [2, 7] was “red”, the “Colour of media in each well” value [2, 8] was “red” and the “Colour of media in each well” value [2, 9] was “red”. The “Colour of media in each well” value ([3]; T~16 h, bacteria samples 4c, Benzyl Penicillin or Cloxacillin 1 μg/ml) was “yellow”, the “Colour of media in each well” value ([3]; T~16 h, bacteria samples 4c, Benzyl Penicillin or Cloxacillin 10 μg/ml) was “yellow” and the “Colour of media in each well” value ([3]; T~16 h, bacteria samples 4c, Benzyl Penicillin or Cloxacillin 100 μg/ml) was “red”. For the same compound, the “Colour of media in each well” value ([3]; T~16 h, bacteria samples 4c, Benzyl Penicillin or Cloxacillin 1,000 μg/ml) was “red”, the “Colour of media in each well” value ([3]; T~16 h, bacteria samples 4c, Benzyl Penicillin or Cloxacillin 10,000 μg/ml) was “red” and the “Colour of media in each well” value ([3]; t~16 h, bacteria samples 4e, Benzyl Penicillin or Cloxacillin 1 μg/ml) was “yellow”. The “Colour of media in each well” value ([3]; t~16 h, bacteria samples 4e, Benzyl Penicillin or Cloxacillin 10 μg/ml) was “yellow”, the “Colour of media in each well” value ([3]; t~16 h, bacteria samples 4e, Benzyl Penicillin or Cloxacillin 100 μg/ml) was “Red” and the “Colour of media in each well” value ([3]; t~16 h, bacteria samples 4e, Benzyl Penicillin or Cloxacillin 1,000 μg/ml) was “Red”. For the same compound, the “Colour of media in each well” value ([3]; t~16 h, bacteria samples 4e, Benzyl Penicillin or Cloxacillin 10,000 μg/ml) was “Red”, the “Colour of media in each well” value [4, 5] was “Red” and the “Colour of media in each well” value [4, 6] was “Red”. The “Colour of media in each well” value [4, 7] was “Red”, the “Colour of media in each well” value [4, 8] was “Red” and the “Colour of media in each well” value [4, 9] was “Red”.
